Experimental data published in patent US20190070266A1 (Novo Nordisk A/S, priority 2016, published 2019).

System: adult human subjects with type 2 diabetes at high risk for cardiovascular events
Assay: Same trial: adverse events by preferred term with frequency of at least 0.1%
Format: in vivo
Details: full analysis set
Method: A long-term, multi-centre, international, randomised double-blind, placebo-controlled trial with 9340 human subjects was carried out with treatment for at least 3.5 years and up to 5 years per subject; and this trial concerned the incidence of cardiovascular events in adult human subjects with type 2 diabetes that were at high risk for cardiovascular events, including such subjects with existing cardiovascular disease. […] All trial endpoints were collected and assessed throughout the entire duration of the trial. Subject inclusion and exclusion criteria were as described in Table 2. The subject's characteristics, cardiovascular risk profile, renal function, cardiovascular medication, and antidiabetic treatment regimens of the randomised subjects at baseline were as shown in Tables 3a-e. Overall trial duration was planned as 18 months of recruitment period followed by 42 months of treatment from last subject randomised. […] After randomisation, treatment with liraglutide or placebo was double-blind throughout the trial. […] The term “placebo” as used herein refers to a formulation identical to the liraglutide formulation except not comprising liraglutide and the placebo was administered in the volume used in the equivalent liraglutide dosage. […] The dosage could be reduced at any time in the trial if required by the subject's tolerance to the trial product. […] The subcutaneous injection was made either in the abdomen, thigh or upper arm.
The term “baseline” herein (e.g. used as part of “baseline characteristics” or “baseline cardiovascular risk profile”) may refer to the level of a certain parameter (e.g. level of HbA1c) by the determination made in connection with the medical visit at the time of randomisation of the subject.
The results of this trial may be presented herein as a number or fraction of subjects experiencing an event. Alternatively, the results of this trial may be presented with hazard ratios estimated in a Cox proportional hazard model, which is the standard statistical model used for estimating time to an event. […] A 5% significance level is the standard level for investigating significance in clinical trials.

[1] = Preferred term: Diabetic foot infection

`CCCCCCCCCCCCCCCC(=O)N[C@@H](CCC(=O)NCCCC[C@H](NC(=O)[C@H](C)NC(=O)[C@H](C)NC(=O)[C@H](CCC(N)=O)NC(=O)CNC(=O)[C@H](CCC(=O)O)NC(=O)[C@H](CC(C)C)NC(=O)[C@H](Cc1ccc(O)cc1)NC(=O)[C@H](CO)NC(=O)[C@H](CO)NC(=O)[C@@H](NC(=O)[C@H](CC(=O)O)NC(=O)[C@H](CO)NC(=O)[C@@H](NC(=O)[C@H](Cc1ccccc1)NC(=O)[C@@H](NC(=O)CNC(=O)[C@H](CCC(=O)O)NC(=O)[C@H](C)NC(=O)[C@@H](N)Cc1cnc[nH]1)[C@@H](C)O)[C@@H](C)O)C(C)C)C(=O)N[C@@H](CCC(=O)O)C(=O)N[C@@H](Cc1ccccc1)C(=O)N[C@H](C(=O)N[C@@H](C)C(=O)N[C@@H](Cc1c[nH]c2ccccc12)C(=O)N[C@@H](CC(C)C)C(=O)N[C@H](C(=O)N[C@@H](CCCNC(=N)N)C(=O)NCC(=O)N[C@@H](CCCNC(=N)N)C(=O)NCC(=O)O)C(C)C)[C@@H](C)CC)C(=O)O` [Liraglutide, Arg34,Lys26-(N-epsilon-(gamma-L-glutamyl(N-alfa-hexadecanoyl)))-GLP-1(7-37)] was tested, and the “Adverse events by preferred term, % (proportion of subjects experiencing at least one event)” value (shortened to “Adverse events by preferred term, %”) [1] was 0.3%, the “Adverse events by preferred term, R (rate, events per 100 PYO)” value (“Adverse events … (rate, events per 100 PYO)” for short) [1] was less than 0.1 events per 100 PYO and the “Adverse events by preferred term, %” value (Preferred term: Diabetic foot) was 2.8%. The “Adverse events … (rate, events per 100 PYO)” value (Preferred term: Diabetic foot) was 1.0 events per 100 PYO, the “Adverse events by preferred term, %” value (Preferred term: Gangrene) was 0.2% and the “Adverse events … (rate, events per 100 PYO)” value (Preferred term: Gangrene) was less than 0.1 events per 100 PYO. For the same compound, the “Adverse events by preferred term, %” value (Preferred term: Skin ulcer) was 0.6% and the “Adverse events … (rate, events per 100 PYO)” value (Preferred term: Skin ulcer) was 0.2 events per 100 PYO.
